# Biological target: T1, C-X-C chemokine receptor type 3 (Homo sapiens, UniProt P49682)
# T1 sequence (P49682 whole entry): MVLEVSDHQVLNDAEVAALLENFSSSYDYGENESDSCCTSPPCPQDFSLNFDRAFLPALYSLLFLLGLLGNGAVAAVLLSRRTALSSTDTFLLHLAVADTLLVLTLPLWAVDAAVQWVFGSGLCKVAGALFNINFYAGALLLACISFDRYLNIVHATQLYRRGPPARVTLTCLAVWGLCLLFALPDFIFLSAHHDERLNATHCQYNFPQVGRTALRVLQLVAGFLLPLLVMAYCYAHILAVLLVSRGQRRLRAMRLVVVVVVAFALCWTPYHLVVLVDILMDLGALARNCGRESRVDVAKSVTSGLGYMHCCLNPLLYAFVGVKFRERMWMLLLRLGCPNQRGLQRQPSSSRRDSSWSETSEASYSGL
# Assay: Displacement of [125I]CXCL10 from human CXCR3 expressed in HEK293T cells
# Assay type: cell-based, HEK-293T
# Conditions: not given
row,Ki [µM],SMILES
1,5.01,Fc1cc(Cl)ccc1CN1CCC(N2CCc3ccccc3C2)CC1
2,6.31,CC1(C)[C@@H]2CC[C@@]1(C)[C@H](NC1CCN(Cc3ccccc3F)CC1)C2 (relative stereo)
3,3.98,Fc1cc(Cl)ccc1CN1CCC(CNC2C3CC4CC(C3)CC2C4)CC1 (stereo unspecified)
4,6.31,CC1(C)[C@@H]2CC[C@@]1(C)[C@H](NC1CCN(Cc3ccc(N)cc3)CC1)C2 (relative stereo)
5,1.26,CN(C1CCN(Cc2ccc(Cl)cc2F)CC1)[C@H]1C[C@H]2CC[C@]1(C)C2(C)C (relative stereo)
6,1,Fc1cc(Cl)ccc1CN1CCC(NCC2C3CC4CC(C3)CC2C4)CC1 (stereo unspecified)
7,3.98,CC1(C)[C@@H]2CC[C@@]1(C)[C@H](NC1CCN(Cc3cc(F)cc(C(F)(F)F)c3)CC1)C2 (relative stereo)
8,0.501,CC12CC3CC(C)(CC(C1)C3NC1CCN(Cc3ccc(Cl)cc3F)CC1)C2 (stereo unspecified)
9,> 10,CC(=O)Nc1ccc(CN2CCC(N[C@@H]3C[C@H]4CC[C@]3(C)C4(C)C)CC2)cc1 (relative stereo)
10,2,CC1(C)C2CC[C@@]1(C)C(CNC1CCN(Cc3ccc(Cl)cc3F)CC1)C2 (mixture of isomers)
11,0.501,Fc1cc(Cl)ccc1CN1CCC(NCC23CC4CC(CC(C4)C2)C3)CC1
12,0.794,CC1(C)[C@@H]2CC[C@@]1(C)[C@H](NC1CCN(Cc3ccc(OC(F)(F)F)cc3)CC1)C2 (relative stereo)
13,> 100,Fc1cc(Cl)ccc1CN1CCC(NCCC(c2ccccc2)c2ccccc2)CC1
14,3.98,c1ccc(CN2CCC(NC3C4CC5CC(C4)CC3C5)CC2)cc1 (stereo unspecified)
15,7.94,COc1cccc(CN2CCC(N[C@@H]3C[C@H]4CC[C@]3(C)C4(C)C)CC2)c1 (relative stereo)
16,7.94,Fc1cc(Cl)ccc1CN1CCC(NC2C3CC4CC2CN(C4)C3)CC1 (stereo unspecified)
17,5.01,Fc1cc(Cl)ccc1CN1CCC(NC2CCCCC2)CC1
18,0.398,CC1(C)[C@@H]2CC[C@@]1(C)[C@H](NC1CCN(Cc3ccc(Cl)cc3F)CC1)C2 (relative stereo)
19,6.31,CC1(C)[C@@H]2CC[C@@]1(C)[C@H](NC1CCN(Cc3ccco3)CC1)C2 (relative stereo)
20,1.58,CN(C1CCN(Cc2ccc(Cl)cc2F)CC1)[C@@H]1C[C@H]2CC[C@]1(C)C2(C)C (relative stereo)
21,2.51,CN(CC1C2CC3CC(C2)CC1C3)C1CCN(Cc2ccc(Cl)cc2F)CC1 (stereo unspecified)
22,2.51,CC1(C)[C@@H]2CC[C@@]1(C)[C@H](NC1CCN(Cc3ccccc3)CC1)C2 (relative stereo)
23,> 10,CC1(C)[C@@H]2CC[C@@]1(C)[C@H](NC1CCN(Cc3cccnc3)CC1)C2 (relative stereo)
24,3.98,"CCOC(=O)C1CN(Cc2ccc(Cl)cc2F)CCC1NC1C2CC3CC(C2)CC1C3 (single isomer, unassigned)"
25,0.00316,CCNC(=O)c1cnc(N2CCN(C3CCN(Cc4ccc(Cl)cc4)CC3)[C@@H](CC)C2)c(Cl)c1
26,1,Clc1ccc(CN2CCC(NC34CC5CC(CC(C5)C3)C4)CC2)cc1
27,0.501,CC1(C)[C@@H]2CC[C@@]1(C)[C@H](NC1CCN(Cc3ccc(Cl)cc3)CC1)C2 (relative stereo)

row,Ki [µM],SMILES
1,0.398,CC1(C)[C@@H]2CC[C@@]1(C)[C@@H](NC1CCN(Cc3ccc(Cl)cc3F)CC1)C2 (relative stereo; 60)
2,5.01,CCOC(=O)C1=C(NC2C3CC4CC(C3)CC2C4)CCN(Cc2ccc(Cl)cc2F)C1 (stereo unspecified)
3,0.158,Fc1cc(Cl)ccc1CN1CCC(NC2C3CC4CC(C3)CC2C4)CC1 (stereo unspecified)
4,3.98,Fc1cc(Cl)ccc1CN1CCC(NCC2CCCCC2)CC1
5,2.51,Fc1cc(Cl)ccc1CN1CCC(NC/C2=C/CCCCCC2)CC1
6,0.501,CC1(C)[C@@H]2CC[C@@]1(C)[C@H](NC1CCN(Cc3c(F)c(F)c(F)c(F)c3F)CC1)C2 (relative stereo)
7,1.58,COc1ccc(CN2CCC(N[C@@H]3C[C@H]4CC[C@]3(C)C4(C)C)CC2)c(F)c1
8,7.94,CC1(C)[C@@H]2CC[C@@]1(C)[C@H](NC1CCN(Cc3ccccn3)CC1)C2 (relative stereo)
9,> 10,Fc1cc(Cl)ccc1CN1CCC(N2CCCC2)CC1
10,3.98,CN(C)c1ccc(CN2CCC(N[C@@H]3C[C@H]4CC[C@]3(C)C4(C)C)CC2)cc1 (relative stereo)
11,10,COc1ccccc1CN1CCC(N[C@@H]2C[C@H]3CC[C@]2(C)C3(C)C)CC1 (relative stereo)
12,5.01,CC(c1ccc(Cl)cc1F)N1CCC(NC2C3CC4CC(C3)CC2C4)CC1 (stereo unspecified)
13,3.98,Fc1cc(Cl)ccc1CNC1CCN(C2C3CC4CC(C3)CC2C4)CC1 (stereo unspecified)
14,2,CC1(C)[C@@H]2CC[C@@]1(C)[C@H](NC1CCN(Cc3ccc(F)cc3F)CC1)C2 (relative stereo)
15,2,COc1ccc(CN2CCC(N[C@@H]3C[C@H]4CC[C@]3(C)C4(C)C)CC2)cc1 (relative stereo)
16,3.98,CC1(C)C2CC=C(CNC3CCN(Cc4ccc(Cl)cc4F)CC3)C1C2 (stereo unspecified)
17,0.398,Clc1ccc(CN2CCC(NC3C4CC5CC(C4)CC3C5)CC2)cc1 (stereo unspecified)
18,0.794,CC1(C)[C@@H]2CC[C@@]1(C)[C@H](NC1CCN(Cc3ccc(N=[N+]=[N-])cc3)CC1)C2 (relative stereo)
19,5.01,CCOC(=O)C1CN(Cc2ccc(Cl)cc2F)CCC1NC1C2CC3CC(C2)CC1C3 (stereo in doubt; 32)
20,3.16,COC(=O)c1ccc(CN2CCC(N[C@@H]3C[C@H]4CC[C@]3(C)C4(C)C)CC2)cc1
21,2.51,CC1(C)[C@@H]2CC[C@@]1(C)[C@H](NC1CCN(Cc3ccc(F)c(C(F)(F)F)c3)CC1)C2 (relative stereo)
22,2,Fc1cc(Cl)ccc1CN1CCCC(NC2C3CC4CC(C3)CC2C4)C1 (stereo unspecified)
23,1.26,CN(C1CCN(Cc2ccc(Cl)cc2F)CC1)C1C2CC3CC(C2)CC1C3 (stereo unspecified)
24,0.631,CC1(C)[C@@H]2CC[C@@]1(C)[C@@H](NC1CCN(Cc3ccc(Cl)cc3F)CC1)C2 (relative stereo; 62)
25,> 10,O=C(Nc1ccc(Cl)cc1F)N1CCC(NC2C3CC4CC(C3)CC2C4)CC1 (stereo unspecified)
26,1.58,Fc1cc(Cl)ccc1CN1CCCN(C2C3CC4CC(C3)CC2C4)CC1 (stereo unspecified)

row,SMILES,Ki [µM]
1,CN1C2CCC1CC(NC1CCN(Cc3ccc(Cl)cc3F)CC1)C2 (mixture of isomers),> 10

# Biological target: T2, C-X-C chemokine receptor type 3 (Homo sapiens) (UniProt P49682)
# T2 sequence (whole entry): T1 sequence (P49682 whole entry)
# Assay: Antagonist activity at human CXCR3 expressed in HEK293T cells coexpressing Galphaqi5 assessed as inhibition of CXCL10-induced [3H]inositol phosphate levels by liquid scintillation counting
# Assay type: functional, cell-based
# Conditions: HEK-293T
row,pKb,SMILES
1,5.7,CC1(C)[C@@H]2CC[C@@]1(C)[C@H](NC1CCN(Cc3ccc(Cl)cc3F)CC1)C2 (relative stereo)
2,6.1,Fc1cc(Cl)ccc1CN1CCC(NC2C3CC4CC(C3)CC2C4)CC1 (stereo unspecified)
